Tests used:
[1] = molecular target: T1, Musca nAChR; housefly (Musca domestica) nAChR; assay: [3H]NMI radioligand displacement; type: binding; details: competition with [3H]NMI
T1 construct: gene nAChRalpha1; pentameric channel

[2] = molecular target: T2, cockroach nAChRs; cockroach nAChR membranes; assay: fluorescence polarization saturation binding; parameters: species or system Periplaneta americana; details: DitIMI irradiated at 320 nm for 15 min (photostationary mixture, 67% closed form); 227 mg/L membranes; 22 °C, 1 h
T2 construct: gene nAChRalpha1; pentameric channel

O=[N+]([O-])N=C1NCCN1Cc1ccc(Cl)nc1 [IMI]
IC50 [1]: 28.8 nM

CC12SC(CN3CCN(Cc4ccc(Cl)nc4)C3=N[N+](=O)[O-])=CC1=C1C(=C3C=C(CN4CCN(Cc5ccc(Cl)nc5)C4=N[N+](=O)[O-])SC32C)C(F)(F)C(F)(F)C1(F)F (stereo not shown) [closed-DitIMI]
IC50 ([1]; after UV illumination, photostationary mixture (67% closed form)): 33.2 nM
Kd [2]: 13.5 nM

Cc1sc(CN2CCN(Cc3ccc(Cl)nc3)C2=N[N+](=O)[O-])cc1C1=C(c2cc(CN3CCN(Cc4ccc(Cl)nc4)C3=N[N+](=O)[O-])sc2C)C(F)(F)C(F)(F)C1(F)F [open-DitIMI]
IC50 ([1]; unirradiated open form): 892 nM

— article doi:10.1101/2021.08.27.457891v1, “Optical Control of Invertebrate nAChR and Behaviors with Dithienylethene-Imidacloprid” (biorxiv, 2021)
